Data reported in patent publication US20150265642A1, “NAD BIOSYNTHESIS AND PRECURSORS IN THE PREVENTION AND TREATMENT OF INFLAMMATION” (PRESIDENT AND FELLOWS OF HARVARD COLLEGE, priority 2013, published 2015).
“Also recorded” adds a separate entry of the source.

What was measured:
[1] = tested on: mitochondrial-encoded genes (ND1, Cytb, COX1 and ATP6); assay: qPCR of mitochondrial-encoded genes in gastrocnemius of NMN-treated mice; assay type: in vivo
Description: (§1) C57BL/6J mice of 6, 22, or 30 months of age were obtained from the National Institutes of Aging mouse aging colony. Additionally 22 months old caloric restricted mice were also obtained from the National Institutes of Aging mouse aging colony. EGLN1 KO, SIRT1 KO and SIRT1 OE mice were generated as previously described (Minamishima et al., 2008; Price et al., 2012). Mice were acclimated for at least one-week prior to sacrifice. 3, 6, 22 and 24-month-old mice were given interperitoneal (IP) injections of 500 mg NMN/kg body weight per day or the equivalent volume of PBS for 7 consecutive days at 5:00 pm and 7:00 am on day 8 and sacrificed 4 hr after last injection.
Whole body adult-inducible Egln1 knockout mice (Minamishima et al, 2007) were treated with IP injection of tamoxifen for 3 days after which they were allowed to rest. The mice were given interperitoneal (IP) injections of 500 mg NMN/kg body weight per day or the equivalent volume of PBS for 7 consecutive days at 5:00 pm and 7:00 am on day 8 and sacrificed 4 hr after last injection. All animal studies followed the guidelines of and were approved by the Harvard Institutional Animal Care and Use Committee.
RNA from skeletal muscle tissue and C2C12 cells were extracted with RNeasy mini kit (Qiagen) according to the instructions and quantified using the NanoDrop 1000 spectrophotometer (Thermo Scientific). cDNA was synthesized with the iSCRIP cDNA synthesis kit (BioRad) using 600 ng of RNA. Quantitative RT-PCR reactions were performed using 1 μM of primers and LightCycler® 480 SYBR Green Master (Roche) on an LightCycler® 480 detection system (Roche). Calculations were performed by a comparative method (2-ΔCT) using 18S as an internal control. For mtDNA analysis, total DNA was extracted with DNeasy blood and tissue kit (Qiagen). mtDNA was amplified using primers specific for the mitochondrial cytochrome c oxidase subunit 2 (COX2) gene and normalized to genomic DNA by amplification of the ribosomal protein s18 (rps18) nuclear gene. […]

Atrogin-1 and MuRF1 = assay: Immunoblot for muscle wasting markers in gastrocnemius; assay type: in vivo; settings: skeletal muscle of old (22-month-old) mice; NMN
Description: as §1
Protein extracts from tissue or C2C12 cells were obtained by lysis in ice-cold lysis buffer (150 mM NaCl, 10 mM Tris HCl (pH 7.4), 1 mM EDTA, 1 mM EGTA, 1% Triton X-100, 0.5% NP-40) supplemented with a cocktail of protease and phosphatase inhibitors (Roche). Protein content was determined by the Bradford protein assay (Biorad), and 50 μg proteins were run on SDS-PAGE under reducing conditions. The separated proteins were then electrophoretically transferred to a polyvinylidene difluoride membrane (Perkin-Elmer). […] The immunostaining was detected using horseradish peroxidase-conjugated anti-rabbit or anti-mouse immunoglobulin for 1 h at room temperature.

[2] = tested on: inflammation related markers (TNFa, IL-6, IL-18); assay: qPCR of inflammation related markers in gastrocnemius; assay type: in vivo, C57BL/6J mice; settings: 22-month-old mice, NMN IP 500 mg/kg/day, 7 days, 500 mg/kg/day
Protocol: C57BL/6J mice of 3, 6, 22, or 24 months of age were obtained from the National Institutes of Aging mouse aging colony. Mice were acclimated for at least one-week prior to sacrifice. 3, 6, 22 and 24-month-old mice were given interperitoneal (IP) injections of 500 mg NMN/kg body weight per day or the equivalent volume of PBS for 7 consecutive days at 5:00 pm and 7:00 am on day 8 and sacrificed 4 hr after last injection. All animal studies followed the guidelines of and were approved by the Harvard Institutional Animal Care and Use Committee
C57BL/6J mice of 6 months of age were given interperitoneal (IP) injections of 300 mg DMOG/kg body weight per day or the equivalent volume of PBS for 5 consecutive days. All animal studies followed the guidelines of and were approved by the Harvard Institutional Animal Care and Use Committee
RNA from skeletal muscle and aorta were extracted with RNeasy mini kit (Qiagen) according to the instructions and quantified using the NanoDrop 1000 spectrophotometer (Thermo Scientific). cDNA was synthesized with the iSCRIP cDNA synthesis kit (BioRad) using 600 ng of RNA. Quantitative RT-PCR reactions were performed using 1 μM of primers and LightCycler® 480 SYBR Green Master (Roche) on an LightCycler® 480 detection system (Roche). Calculations were performed by a comparative method (2-ΔCT) using 18S as an internal control. […]

NC(=O)c1ccc[n+]([C@@H]2O[C@H](COP(=O)([O-])O)[C@@H](O)[C@H]2O)c1 [NMN, nicotinamide mononucleotide]
mitochondrial-encoded genes in the skeletal muscle ([1]; Egln1 KO mice treated with NMN, compared to WT controls): did not restore | ability of NMN to induce mitochondrially-encoded genes ([1]; inducible SIRT1 KO mice, skeletal muscle): lost in animals lacking SIRT1 | expression of mitochondrial-encoded genes ([1]; old (22-month-old) mice, gastrocnemius, NMN one week): restored | muscle wasting markers Atrogin-1 and MuRF1 (Atrogin-1 and MuRF1): completely reversed | expression of inflammation markers (TNFa, IL-6, IL-18) in the skeletal muscle [2]: completely reversed; also recorded: reverses age-related increase in inflammatory markers in the skeletal muscle
